Usually IC50 stands for the midpoint of a concentration-inhibition curve. Higher therefore signals weaker potency.

The text below walks through data of publication PMC3699650, “Structural Insights into the Abscisic Acid Stereospecificity by the ABA Receptors PYR/PYL/RCAR” (PLoS ONE, 2013).

Experiment [1] deals with T1, PYL9 (with HAB1) (Arabidopsis thaliana, UniProt Q84MC7).
T1 construct: PYL9 from E. coli BL21(DE3), pET-28a or pGEX-4T-2 (TEV site), IMAC and SEC, monomer; HAB1 residues 169-511, GST cut by TEV; with Protein phosphatase 2C 16
T1 sequence (Q84MC7 1-187): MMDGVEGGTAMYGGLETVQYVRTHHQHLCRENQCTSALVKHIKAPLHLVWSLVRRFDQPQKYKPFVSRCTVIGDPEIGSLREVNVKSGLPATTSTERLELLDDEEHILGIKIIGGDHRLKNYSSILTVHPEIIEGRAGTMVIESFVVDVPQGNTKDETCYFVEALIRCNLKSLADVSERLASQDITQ
T1 sequence (Q9CAJ0 169-511 partner): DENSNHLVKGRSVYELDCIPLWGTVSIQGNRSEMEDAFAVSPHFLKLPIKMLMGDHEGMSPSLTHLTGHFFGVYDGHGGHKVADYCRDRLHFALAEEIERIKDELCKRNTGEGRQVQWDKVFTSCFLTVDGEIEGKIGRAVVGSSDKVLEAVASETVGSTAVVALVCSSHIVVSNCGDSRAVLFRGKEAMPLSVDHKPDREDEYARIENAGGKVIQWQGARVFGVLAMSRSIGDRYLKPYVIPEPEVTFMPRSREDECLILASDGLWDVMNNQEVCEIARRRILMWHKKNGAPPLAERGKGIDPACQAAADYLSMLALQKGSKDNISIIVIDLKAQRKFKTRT
The experiment is described as follows: HAB1 phosphatase inhibition assay. The note with it: Hepes pH 7.5, 30 °C. Type of experiment: biochemical.

Another experiment deals with T2, PYL6 (with HAB1) (Arabidopsis thaliana, UniProt Q8S8E3).
T2 construct: PYL6 from E. coli BL21(DE3), pET-28a or pGEX-4T-2 (TEV site), IMAC and SEC; HAB1 residues 169-511, GST cut by TEV; with Protein phosphatase 2C 16
T2 sequence (Q8S8E3 1-215): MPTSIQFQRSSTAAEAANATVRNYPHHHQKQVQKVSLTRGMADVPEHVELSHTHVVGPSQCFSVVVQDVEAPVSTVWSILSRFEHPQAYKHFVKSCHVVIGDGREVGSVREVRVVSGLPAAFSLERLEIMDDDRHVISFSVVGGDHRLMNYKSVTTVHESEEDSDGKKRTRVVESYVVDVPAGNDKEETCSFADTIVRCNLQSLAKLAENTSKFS
T2 sequence (Q9CAJ0 169-511 partner): T1 sequence (Q9CAJ0 169-511 partner)
In words: HAB1 phosphatase inhibition assay (phosphopeptide, molybdate). Type of experiment: biochemical.

Another experiment has as its target T3, PYL2 (with HAB1) (Arabidopsis thaliana, UniProt O80992).
T3 construct: PYL2 from E. coli BL21(DE3), pET-28a or pGEX-4T-2 (TEV site), IMAC and SEC; HAB1 residues 169-511, GST cut by TEV; with Protein phosphatase 2C 16
T3 sequence (O80992 1-190): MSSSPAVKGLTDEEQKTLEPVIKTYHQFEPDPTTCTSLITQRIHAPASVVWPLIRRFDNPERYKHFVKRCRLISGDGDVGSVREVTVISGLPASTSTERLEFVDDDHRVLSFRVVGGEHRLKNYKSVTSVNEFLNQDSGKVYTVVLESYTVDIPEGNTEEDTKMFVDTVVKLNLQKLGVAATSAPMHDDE
T3 sequence (Q9CAJ0 169-511 partner): T1 sequence (Q9CAJ0 169-511 partner)
Described as above. Type of experiment: biochemical.

Experiment [2] addresses T1, PYL9 (with HAB1). Described as above. Format: biochemical.
In a further experiment the target is T4, PYL1 (with HAB1) (Arabidopsis thaliana, UniProt Q8VZS8).
T4 construct: PYL1 from E. coli BL21(DE3), pET-28a or pGEX-4T-2 (TEV site), IMAC and SEC; HAB1 residues 169-511, GST cut by TEV; with Protein phosphatase 2C 16
T4 sequence (Q8VZS8 2-221): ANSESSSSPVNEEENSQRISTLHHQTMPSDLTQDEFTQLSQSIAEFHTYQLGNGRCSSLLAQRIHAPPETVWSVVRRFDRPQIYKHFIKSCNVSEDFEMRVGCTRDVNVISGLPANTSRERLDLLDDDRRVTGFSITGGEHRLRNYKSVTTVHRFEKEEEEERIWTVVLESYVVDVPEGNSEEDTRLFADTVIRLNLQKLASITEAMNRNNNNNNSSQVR
T4 sequence (Q9CAJ0 169-511 partner): T1 sequence (Q9CAJ0 169-511 partner)
Described as above. Format: biochemical.

The target of the next experiment is T5, PYL5 (with HAB1) (Arabidopsis thaliana, UniProt Q9FLB1).
T5 construct: PYL5 from E. coli BL21(DE3), pET-28a or pGEX-4T-2 (TEV site), IMAC and SEC, monomer; HAB1 residues 169-511, GST cut by TEV; with Protein phosphatase 2C 16
T5 sequence (Q9FLB1 1-203): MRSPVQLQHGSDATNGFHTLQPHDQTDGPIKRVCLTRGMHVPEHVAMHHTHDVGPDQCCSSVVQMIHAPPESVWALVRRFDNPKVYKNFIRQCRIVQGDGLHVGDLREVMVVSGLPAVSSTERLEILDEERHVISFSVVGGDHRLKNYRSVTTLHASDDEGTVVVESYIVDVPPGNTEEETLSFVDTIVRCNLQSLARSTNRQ
T5 sequence (Q9CAJ0 169-511 partner): T1 sequence (Q9CAJ0 169-511 partner)
The experiment is described as above. Type of experiment: biochemical.

The next experiment deals with T6, PYR1 (with HAB1) (Arabidopsis thaliana, UniProt O49686).
T6 construct: PYR1 from E. coli BL21(DE3), pET-28a or pGEX-4T-2 (TEV site), IMAC and SEC; HAB1 residues 169-511, GST cut by TEV; with Protein phosphatase 2C 16
T6 sequence (O49686 1-191): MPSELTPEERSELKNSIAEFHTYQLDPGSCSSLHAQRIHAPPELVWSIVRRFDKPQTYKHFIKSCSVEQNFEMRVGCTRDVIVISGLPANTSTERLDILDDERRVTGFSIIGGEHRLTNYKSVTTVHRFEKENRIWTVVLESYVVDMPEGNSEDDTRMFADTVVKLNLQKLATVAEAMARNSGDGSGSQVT
T6 sequence (Q9CAJ0 169-511 partner): T1 sequence (Q9CAJ0 169-511 partner)
The experiment is described as above. Type of experiment: biochemical.

The next experiment addresses T7, PYL4 (with HAB1) (Arabidopsis thaliana, UniProt O80920).
T7 construct: PYL4 from E. coli BL21(DE3), pET-28a or pGEX-4T-2 (TEV site), IMAC and SEC; HAB1 residues 169-511, GST cut by TEV; with Protein phosphatase 2C 16
T7 sequence (O80920 1-207): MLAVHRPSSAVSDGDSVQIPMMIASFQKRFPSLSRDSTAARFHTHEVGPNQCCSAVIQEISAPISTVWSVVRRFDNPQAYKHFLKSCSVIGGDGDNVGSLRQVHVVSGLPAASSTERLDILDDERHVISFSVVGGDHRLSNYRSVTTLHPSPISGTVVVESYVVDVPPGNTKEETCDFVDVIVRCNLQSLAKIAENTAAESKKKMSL
T7 sequence (Q9CAJ0 169-511 partner): T1 sequence (Q9CAJ0 169-511 partner)
The experiment is described as above. Type of experiment: biochemical.

A further experiment concerns the target T8, PYL3 (Arabidopsis thaliana, UniProt Q9SSM7).
T8 construct: apo mainly dimer
T8 sequence (Q9SSM7 1-209): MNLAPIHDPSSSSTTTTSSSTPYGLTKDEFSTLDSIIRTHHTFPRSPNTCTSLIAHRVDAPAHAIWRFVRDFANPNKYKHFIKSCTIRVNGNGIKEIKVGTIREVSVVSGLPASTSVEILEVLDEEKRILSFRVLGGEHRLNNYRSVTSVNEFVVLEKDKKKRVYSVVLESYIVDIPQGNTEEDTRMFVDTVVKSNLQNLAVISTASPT
The experiment is described as follows: isothermal titration calorimetry. Type of experiment: binding. The note with it: 20 °C, 20 mM Tris-HCl pH 8.0, 150 mM NaCl; 0.3 mM (−)-ABA into 0.22 mM PYL3. For orientation: In ITC the heat of successive injections is recorded.

The target of a further experiment is T9, PYL8 (with HAB1) (Arabidopsis thaliana, UniProt Q9FGM1).
T9 construct: PYL8 from E. coli BL21(DE3), pET-28a or pGEX-4T-2 (TEV site), IMAC and SEC; HAB1 residues 169-511, GST cut by TEV; with Protein phosphatase 2C 16
T9 sequence (Q9FGM1 1-188): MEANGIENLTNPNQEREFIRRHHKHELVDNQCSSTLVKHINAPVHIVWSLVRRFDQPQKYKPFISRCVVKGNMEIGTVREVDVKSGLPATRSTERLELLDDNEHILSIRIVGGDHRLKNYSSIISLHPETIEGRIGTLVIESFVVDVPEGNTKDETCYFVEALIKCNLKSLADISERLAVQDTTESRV
T9 sequence (Q9CAJ0 169-511 partner): T1 sequence (Q9CAJ0 169-511 partner)
In words: HAB1 phosphatase inhibition assay (phosphopeptide, molybdate). Type of experiment: biochemical.

In a further experiment the target is T10, PYL10 (with HAB1) (Arabidopsis thaliana, UniProt Q8H1R0).
T10 construct: PYL10 from E. coli BL21(DE3), pET-28a or pGEX-4T-2 (TEV site), IMAC and SEC; HAB1 residues 169-511, GST cut by TEV; with Protein phosphatase 2C 16
T10 sequence (Q8H1R0 1-183): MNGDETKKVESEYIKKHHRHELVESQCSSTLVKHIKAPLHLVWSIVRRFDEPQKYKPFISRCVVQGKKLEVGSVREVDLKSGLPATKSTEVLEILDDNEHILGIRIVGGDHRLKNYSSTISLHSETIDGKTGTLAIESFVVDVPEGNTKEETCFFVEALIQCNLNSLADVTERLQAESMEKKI
T10 sequence (Q9CAJ0 169-511 partner): T1 sequence (Q9CAJ0 169-511 partner)
Described as above. Format: biochemical.

On to `CC1=CC(=O)CC(C)(C)[C@@]1(O)/C=C/C(C)=C/C(=O)O` [(+)-ABA], for which, at PYL9 (with HAB1) [1], the “HAB1 phosphatase inhibition assay” value is reported as “PYL9 can inhibit HAB1 in the presence of (+)-ABA”.

Turning to `CC1=CC(=O)CC(C)(C)[C@]1(O)/C=C/C(C)=C\C(=O)O` [(−)-ABA], the 50% inhibitory concentration (IC50) against PYL6 (with HAB1) is 0.47 µM; on PYL2 (with HAB1), 2.5 µM; against PYL9 (with HAB1) [2], over 10 µM; against PYL1 (with HAB1) it was 3.1 µM; on PYL5 (with HAB1), 0.17 µM; at PYR1 (with HAB1) it was 4.5 µM. The IC50 against PYL4 (with HAB1) turned out to be 0.48 µM; against PYL8 (with HAB1), 1.6 µM; against PYL10 (with HAB1), 15 µM. On PYL3, the binding affinity result is listed as “ITC results showed that the binding affinity of (−)-ABA to PYL3 was less”.
